Data on two compounds can be found in patent US20230372244A1, “Methods of Preparing Cell-Derived Vesicles” (NATIONAL UNIVERSITY OF SINGAPORE, priority 2020, published 2023).

Where a name gives a salt, the structure may show the parent alone.

In assay [1] the test system is patient-derived tumor xenografts. Nature of the assay: Patient-derived tumor xenografts in NSG mice, DOX and/or PEMF. The assay is classed as in vivo. The settings on record: 20 mg/kg DOX intravenously and/or PEMF 1 h weekly for 5 weeks. (In general: Xenograft models place foreign cells or tissue in a host animal.)
Protocol: (A) Schematic of PEMF and DOX exposures regimes used on mice hosting patient-derived tumor xenografts. Implanted tumors were allowed to grow for 3 weeks before the initiation of DOX and/or PEMF treatments. Tumor volumes were measured each week while apoptotic cell determination was performed at the end of the study. Each data point represents the mean from 5 experimental runs derived from the tumors obtained from 5 patients, each of which was equally divided amongst the 5 treatment groups. (B) Changes in tumor volume (mm^3) for 5 weeks. (C) Representative scatter dot-plots showing cell population of dissociated tumors sorted based on annexin and propidium iodide staining. (D) Bar chart represents pooled data of apoptotic cell percentages analyzed using flow cytometry. N=5 mice, with *, p<0.05, **, p<0.01, and #p<0.0001. The error bars are expressed as the standard error of the mean.
The NSG mice were purchased from Jackson's laboratory and used at 8-10 weeks of age. Briefly, each female NSG mouse was implanted with a subcutaneous 60-day (0.36 mg) slow-release estradiol pellet (Innovative Research of America). Each patient tumor was equally divided into 5 chunks and implanted into the dorsal flank of 5 animals corresponding to the 5 different treatment groups. […] At the end of the study, tumor volume was measured and isolated for apoptotic cell determination. […]
In assay [2] the test system is MCF-7 cells. Nature of the assay: Cyquant DNA content of MCF-7 cells after DOX and PEMF. The class given is cell-based. The settings on record: DOX 100 nM; 3 mT PEMF 1 h daily for 3 days. As for the experimental part:
(§1) FIG. 13. […] (A) Schematic of PEMF and DOX treatment regime for DNA quantification. Cells were exposed to 3 mT for 1 h daily for 3 successive days. DOX (100 nM) was administered on the final day 1 h before the last PEMF exposure. Cellular DNA content was measured 24 h after the last PEMF exposure. (B) Bar chart of pooled data for Cyquant DNA content in fold change 24 h post-DOX and PEMF treatments. (C) Colony formation paradigm for MCF-7 cells treated with DOX and PEMFs. (D) MCF-7 colony formation in the presence of 10 and 20 nM DOX, with and without PEMF exposure as indicated. Cells were seeded at a low density of 100 cells per well. (E) Colony survival in 10 nM DOX under low-density conditions. […] (F) MCF-7 colony formation in the presence of 10 and 20 nM DOX, with and without PEMF exposure under high-density seeding of 1000 cells per well. The images on the right are the zoom-in images of cells under the same treatment paradigm. […] (H) Absolute DCH2FDA-ROS fluorescence from MCF-7 cells. […]
(§2) For cell enumeration using trypan blue exclusion assay, MCF-7, MDA-MB-231, or MCF10A cells were seeded at 6000 cells/cm^2 per well of a 6-well plate. […] Cyquant stained DNA was measured using at 480/520 nm using Cytation 5 microplate reader (BIOTEK).

For assay [3], the system named is MCF-7 cells. Nature of the assay: Clonogenic assay of MCF-7 cells with DOX and PEMF. The assay is classed as cell-based. The conditions noted are these: 20 nM DOX, low density of 100 cells per well. As for the experimental part:
as §1, with “well.” for “well. The images on the right are the zoom-in images of cells under the same treatment paradigm.”
In vitro clonogenic assay was performed using crystal violet staining (24). […] The mean survival factor (colony count) was determined as the number of surviving cells over the number of cells plated and normalized to the survival factor of the control group expressed as fold change. The colony size relative frequency was determined by binning colonies into several bins, according to their relative size from the smallest to the largest colonies after normalizing to the total number of cells.

Another assay deals with MCF-7 xenograft. Nature of the assay: MCF-7 xenograft in mice, DOX and/or PEMF. The assay is classed as in vivo. The conditions noted are these: weekly PEMF and DOX exposures.
The next assay relates to MCF-7/TRPC1 cells. Nature of the assay: DNA content and colony formation of TRPC1 overexpressing MCF-7 cells with DOX and PEMF. The assay is classed as cell-based. The conditions noted are these: TRPC1 overexpression versus vector cells. As for the experimental part: FIG. 17. […] (A) PEMF and DOX treatment regime for MCF-7/TRPC1 cell DNA quantification. (B) DNA fold change relative to 0 mT vector cells. Statistical analysis was done using the two-sample t-test. (C) Colony formation after 10 days in the presence of 0 nM, 10 nM or 20 nM DOX, without PEMF exposure. Images of colony formation and the quantification of colony size frequency distribution normalized to the total number of colonies in the presence of 10 nM DOX for (D) vector and (E) MCF-7/TRPC1 cells or 20 nM DOX for (F) vector and (G) MCF-7/TRPC1 cells, concomitant with daily PEMF exposure. *, p<0.05, **, p<0.01 and ***, p<0.001 indicate the statistical difference between the respective 0 mT and 3 mT condition within the same bin. (H) PEMF-modulated proliferation of TRPC1-silenced MCF-7 cells 48 h post dsiRNA transfection. […]
as §2
In vitro clonogenic assay was performed using crystal violet staining (24). […] The mean survival factor (colony count) was determined as the number of surviving cells over the number of cells plated and normalized to the survival factor of the control group expressed as fold change. […]

For another assay, the target named is T1, TRPA1 (Mus musculus, UniProt Q8BLA8).
T1 construct: containing Fluo-4 loaded myoblast-derived CDVs from the same culture; endogenous in cells
Nature of the assay: TRP channel functional assessment of immobilized CDVs (menthol, Fluo-4 calcium signal). The class given is biochemical, Murine. The conditions noted are these: Fluo-4 loaded myoblast-derived CDVs on microfluidic chip; versus CDVs not administered menthol. The text has this:
FIG. 1. Schematic depicting the tests applied to CDVs to ascertain 1) innate channel functionality and 2) recuperative potential for cellular respiratory and proliferative capacities. 1) Cell-free assays were comprised of examining specific TRP channel activation by menthol (TRPA1) or magnetic fields (TRPC1). 2) Cell-based assays entailed administering wild type CDVs to TRPC1-knockdown myoblasts followed by testing for recuperation of cellular proliferative and mitochondrial respiratory capacities.
FIG. 4. A) Schematics of the CDV immobilization 1), loading 2), and TRP channel functional assessment 3). […] Red fluorescence is Texas Red as part of the biochemical linker, the dotted line indicates the edge of the print. […] Data were simultaneously recorded from 3 parallel channels of the same microfluidic chip containing Fluo-4 loaded myoblast-derived CDVs from the same culture, 2 channels with menthol administration and one without (negative control). […] Representative calcium responses (Rate of Rise (ROR) normalized to starting value) from intact C2C12 myoblasts D) or CDVs E) derived from wild type C2C12 myoblasts (left) or C2C12 CRISPR/Cas9 knockdown myoblasts, 60 (middle), and 61 (right), in response to 10 min magnetic field exposure (1.5 mT) while in suspension immediately before reading. […]

T1 sequence (Q8BLA8 whole entry): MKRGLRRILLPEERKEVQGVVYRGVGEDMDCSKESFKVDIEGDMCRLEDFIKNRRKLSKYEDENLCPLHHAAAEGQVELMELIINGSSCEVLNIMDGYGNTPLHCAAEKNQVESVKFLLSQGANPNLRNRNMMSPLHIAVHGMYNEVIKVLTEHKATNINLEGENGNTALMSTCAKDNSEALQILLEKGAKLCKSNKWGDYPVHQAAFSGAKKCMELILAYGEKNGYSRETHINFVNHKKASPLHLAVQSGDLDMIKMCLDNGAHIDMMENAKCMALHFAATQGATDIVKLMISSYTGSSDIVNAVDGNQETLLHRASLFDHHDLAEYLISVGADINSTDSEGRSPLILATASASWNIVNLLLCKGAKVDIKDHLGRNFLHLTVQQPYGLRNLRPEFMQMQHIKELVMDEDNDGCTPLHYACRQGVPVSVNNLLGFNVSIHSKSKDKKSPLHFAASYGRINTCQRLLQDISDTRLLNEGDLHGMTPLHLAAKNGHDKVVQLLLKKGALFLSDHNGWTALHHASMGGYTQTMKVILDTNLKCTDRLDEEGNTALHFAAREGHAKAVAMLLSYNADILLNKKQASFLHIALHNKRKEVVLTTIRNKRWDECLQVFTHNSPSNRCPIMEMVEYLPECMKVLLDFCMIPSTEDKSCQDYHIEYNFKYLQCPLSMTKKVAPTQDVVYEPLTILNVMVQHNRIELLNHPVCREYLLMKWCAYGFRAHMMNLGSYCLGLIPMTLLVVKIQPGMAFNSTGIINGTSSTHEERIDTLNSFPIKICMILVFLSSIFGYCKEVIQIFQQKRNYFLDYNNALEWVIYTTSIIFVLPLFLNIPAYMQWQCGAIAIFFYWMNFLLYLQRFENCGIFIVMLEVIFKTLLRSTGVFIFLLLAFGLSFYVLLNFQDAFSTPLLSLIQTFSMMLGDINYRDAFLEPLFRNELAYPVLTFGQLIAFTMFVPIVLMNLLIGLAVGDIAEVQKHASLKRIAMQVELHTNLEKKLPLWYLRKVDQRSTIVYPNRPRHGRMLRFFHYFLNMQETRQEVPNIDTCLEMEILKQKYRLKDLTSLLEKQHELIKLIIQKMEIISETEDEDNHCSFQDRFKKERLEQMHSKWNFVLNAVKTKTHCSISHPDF
Protocol for MCF-7 xenograft: (A) Schematic of weekly PEMF and DOX exposures on MCF-7 xenograft in mice. Implanted cells were allowed to grow for 3 weeks before the initiation of DOX and/or PEMF treatment. Apoptotic cell determination was performed at the end of the study. […] N=6 mice, with *, p<0.05, **, p 1137<0.01, and #, p<0.0001. The error bars are expressed as the standard error of the mean.
The NSG mice were purchased from Jackson's laboratory and used at 8-10 weeks of age. Briefly, each female NSG mouse was implanted with a subcutaneous 60-day (0.36 mg) slow-release estradiol pellet (Innovative Research of America). […] The tumors were allowed to grow for 3 weeks. For MCF-7, 1×10^6 cells were counted and mixed in a 40-60% ratio with Matrigel Growth Factor (Bio Laboratories, Cat No. 354230). The cells are injected subcutaneously into the dorsal flank of the animals corresponding to the different treatment groups. The animals were given 20 mg/kg DOX intravenously and/or PEMFs stimulation for 1 h weekly for 5 weeks. At the end of the study, tumor volume was measured and isolated for apoptotic cell determination.
For apoptotic cell determination, the tumors were dissociated to single cells using the MACS Tumor Dissociation Kit in combination with the gentleMACS Dissociator (Miltenyi Biotec) as according to the manufacturer's protocol. After dissociation, the cells were filtered through a 30 μm MACS SmartStrainer. […]

For `COc1cccc2c1C(=O)c1c(O)c3c(c(O)c1C2=O)C[C@@](O)(C(=O)CO)C[C@@H]3O[C@H]1C[C@H](N)[C@H](O)[C@H](C)O1` [DOX, Doxorubicin hydrochloride], in assay [1], the tumor growth entry is on record as “synergize with DOX to inhibit tumor growth in vivo”. The “MCF-7 cell vulnerability to doxorubicin (DNA content)” value with MCF-7 cells [2] is “enhances MCF-7 cell vulnerability to doxorubicin”. Moreover, the colony number entry with MCF-7 cells [3] is reported as “too few to quantify accurately”. Besides, the MCF-7 tumor growth entry in the assay on MCF-7 xenograft is reported as “synergize with doxorubicin to inhibit MCF-7 tumor growth in vivo”. The “sensitivity of MCF-7 cells to doxorubicin” value in the assay with MCF-7/TRPC1 cells is given as “TRPC1 overexpression sensitizes MCF-7 cells to doxorubicin”.

On to `CC1CCC(C(C)C)C(O)C1` (stereo not drawn) [Menthol, menthol], for which the intra-CDV calcium concentration result at TRPA1 was “increases in intra-CDV calcium concentration”.
